Assays:
[1] = biological target: isolated recombinant JAK1 kinase domain (Homo sapiens (Human), UniProt P23458); assay: JAK1 enzyme assay (Caliper LabChip, peptide phosphorylation); format: biochemical; conditions: isolated recombinant JAK1 kinase domain, 25 μM ATP
[2] = tested on: JAK1-dependent STAT6 phosphorylation downstream of IL-13 stimulation in BEAS-2B human bronchial epithelial cells; assay: JAK1 pathway assay in BEAS-2B cells (IL-13-pSTAT6, MSD); format: cell-based; conditions: read-out: IL13-pSTAT6 EC50 (uM)_BEAS-2B
In short: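 BEAS-2B: complete growth medium, compound 1 hr at 37° C. TF-1: GM-CSF-starved overnight, serum-free OptiMEM, compound 30 min.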

[3] = biological target: isolated recombinant JAK2 kinase domain (Homo sapiens (Human), UniProt O60674); assay: JAK2 enzyme assay (Caliper LabChip, peptide phosphorylation); format: biochemical; conditions: 25 μM ATP
isolated recombinant JAK2 kinase domain, sequence (O60674 849-1124): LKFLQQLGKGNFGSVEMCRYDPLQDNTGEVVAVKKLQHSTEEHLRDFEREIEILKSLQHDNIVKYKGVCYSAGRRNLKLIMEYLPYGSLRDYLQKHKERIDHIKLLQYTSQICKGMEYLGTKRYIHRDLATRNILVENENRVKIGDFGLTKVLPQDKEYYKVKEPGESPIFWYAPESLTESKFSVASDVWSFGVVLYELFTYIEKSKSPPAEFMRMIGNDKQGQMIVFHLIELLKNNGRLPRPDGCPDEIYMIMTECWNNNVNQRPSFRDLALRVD

isolated recombinant JAK1 kinase domain, sequence (P23458 875-1153): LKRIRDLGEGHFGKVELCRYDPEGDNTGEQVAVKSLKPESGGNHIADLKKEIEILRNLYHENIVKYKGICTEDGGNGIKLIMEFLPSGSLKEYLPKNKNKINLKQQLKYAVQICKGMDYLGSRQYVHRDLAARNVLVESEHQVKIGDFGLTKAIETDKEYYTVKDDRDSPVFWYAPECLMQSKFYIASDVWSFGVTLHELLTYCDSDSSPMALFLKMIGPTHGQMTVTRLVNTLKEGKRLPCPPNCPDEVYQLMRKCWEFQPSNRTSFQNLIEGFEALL

Row | SMILES | Ki [1] | Ki [3] | EC50 [2]
1 | O=C(Nc1cn(CC(=O)N2CCN(CC3CC3)CC2)nc1-c1cc(Cl)ccc1OC(F)F)c1cnn2cccnc12 [Example 374, N-[3-[5-chloro-2-(difluoromethoxy)phenyl]-1-[2-[4-(cyclopropylmethyl)piperazin-1-yl]-2-oxoethyl]-1H-pyrazol-4-yl]pyrazolo[1,5-a]pyrimidine-3-carboxamide] | 0.45 nM | 0.88 nM | 0.0295 µM
2 | COC(=O)C1CCN(CCN2CCN(C(=O)Cn3cc(NC(=O)c4cnn5cccnc45)c(-c4cc(Cl)ccc4OC(F)F)n3)CC2)CC1 [Example 333, methyl1-[2-[4-(2-[3-[5-chloro-2-(difluoromethoxy)phenyl]-4-[pyrazolo[1,5-a]pyrimidine-3-amido]-1H-pyrazol-1-yl]acetyl)piperazin-1-yl]ethyl]piperidine-4-carboxylate] | 0.69 nM | 1.96 nM | 0.0065 µM
3 | O=C(Nc1cn(CC(=O)N2CCC(C(=O)N3CCNCC3)CC2)nc1-c1cc(Cl)ccc1OC(F)F)c1cnn2cccnc12 [Example 408, N-(3-(5-chloro-2-(difluoromethoxy)phenyl)-1-(2-oxo-2-(4-(piperazine-1-carbonyl)piperidin-1-yl)ethyl)-1H-pyrazol-4-yl)pyrazolo[1,5-a]pyrimidine-3-carboxamide] | 0.59 nM | 2.29 nM | 0.121 µM
4 | CN(C)C(=O)CN(C)C1CCN(C(=O)Cn2cc(NC(=O)c3cnn4cccnc34)c(-c3cc(Cl)ccc3OC(F)F)n2)CC1 [Example 400, N-(3-(5-chloro-2-(difluoromethoxy)phenyl)-1-(2-(4-((2-(dimethylamino)-2-oxoethyl)(methyl)amino)piperidin-1-yl)-2-oxoethyl)-1H-pyrazol-4-yl)pyrazolo[1,5-a]pyrimidine-3-carboxamide] | 0.58 nM | 1.73 nM | 0.0309 µM
5 | CN(CCn1cc(NC(=O)c2cnn3cccnc23)c(-c2cc(Cl)ccc2OC(F)F)n1)CC1CCC(=O)O1 (stereo not drawn) [Example 390, N-[3-[5-chloro-2-(difluoromethoxy)phenyl]-1-(2-[methyl[(5-oxooxolan-2-yl)methyl]amino]ethyl)-1H-pyrazol-4-yl]pyrazolo[1,5-a]pyrimidine-3-carboxamide] | 1.28 nM | 0.84 nM | 0.0424 µM
6 | O=C(Nc1cn(CC(=O)N2CCN(CCN3CCOCC3)CC2)nc1-c1cc(Cl)ccc1OC(F)F)c1cnn2cccnc12 [Example 321, N-[3-[5-chloro-2-(difluoromethoxy)phenyl]-1-(2-[4-[2-(morpholin-4-yl)ethyl]piperazin-1-yl]-2-oxoethyl)-1H-pyrazol-4-yl]pyrazolo[1,5-a]pyrimidine-3-carboxamide] | 0.4 nM | 0.9 nM | 0.0133 µM

The next lines start with results.

Row | Ki [1] | Ki [3] | SMILES | EC50 [2]
7 | 0.25 nM | 0.75 nM | N#CC1(NC2CCN(C(=O)Cn3cc(NC(=O)c4cnn5cccnc45)c(-c4cc(Cl)ccc4OC(F)F)n3)CC2)CC1 [Example 436, N-(3-(5-chloro-2-(difluoromethoxy)phenyl)-1-(2-(4-(1-cyanocyclo-propylamino)piperidin-1-yl)-2-oxoethyl)-1H-pyrazol-4-yl)pyrazolo[1,5-a]pyrimidine-3-carboxamide] | 0.0103 µM
8 | 0.24 nM | 0.56 nM | CN(CC(C)(C)C#N)C1CCN(C(=O)Cn2cc(NC(=O)c3cnn4cccnc34)c(-c3cc(Cl)ccc3OC(F)F)n2)CC1 [Example 465, N-(3-(5-chloro-2-(difluoromethoxy)phenyl)-1-(2-(4-((2-cyano-2-methylpropyl)(methyl)amino)piperidin-1-yl)-2-oxoethyl)-1H-pyrazol-4-yl)pyrazolo[1,5-a]pyrimidine-3-carboxamide] | 0.0114 µM
9 | 0.41 nM | 1.06 nM | CC(C#N)CNC1CCN(C(=O)Cn2cc(NC(=O)c3cnn4cccnc34)c(-c3cc(Cl)ccc3OC(F)F)n2)CC1 (stereo not drawn) [Example 419, N-(3-(5-chloro-2-(difluoromethoxy)phenyl)-1-(2-(4-(2-cyanopropyl-amino)piperidin-1-yl)-2-oxoethyl)-1H-pyrazol-4-yl)pyrazolo[1,5-a]pyrimidine-3-carboxamide] | 0.0313 µM

From patent publication US9346815B2, “5-chloro-2-difluoromethoxyphenyl pyrazolopyrimidine compounds, compositions and methods of use thereof” (Genentech, Inc., priority 2014, dated 2016)
